We go through two molecules from patent publication US11931368B2, “Glucocorticoid “nintedanib” particles and their use” (CRITITECH, INC., priority 2017, dated 2024).

A short description of series [1]: Specific surface area by BET isotherm. Type of series: physicochemical. As to the method:
As used herein, the “specific surface area” (SSA) is the total surface area of the particle per unit of compound mass as measured by the Brunauer-Emmett-Teller (“BET”) isotherm by the following method: a known mass between 200 and 300 mg of the analyte is added to a 30 mL sample tube. The loaded tube is then mounted to a Porous Materials Inc. SORPTOMETER®, model BET-202A. The automated test is then carried out using the BETWIN® software package and the surface area of each sample is subsequently calculated. Such an increase in SSA results in significant increases in dissolution rates in relevant media as compared to therapeutic particles produced by conventional means. The “therapeutic particles” can include both agglomerated therapeutic particles and non-agglomerated therapeutic particles; since the SSA is determined on a per gram basis it takes into account both agglomerated and non-agglomerated therapeutic particles in the composition. The BET specific surface area test procedure is a compendial method included in both the United States Pharmaceopeia and the European Pharmaceopeia.

Series [2] in a line: Particle size distribution (volume, laser-light diffraction). Type of series: physicochemical. The text has this: The particle size of the particles of all aspects disclosed herein can be determined by a particle size analyzer instrument and the measurement is expressed as the mean diameter based on a volume distribution (volume). A suitable particle size analyzer instrument is one which employs the analytical technique of […]. A suitable laser-light diffraction particle size analyzer instrument is the Mastersizer, such as the Mastersizer 3000, available from Malvern Instruments, United Kingdom.

In the case of `COC(=O)c1ccc2c(c1)NC(=O)/C2=C(\Nc1ccc(N(C)C(=O)CN2CCN(C)CC2)cc1)c1ccccc1` [Raw nintedanib, nintedanib], the “SSA (specific surface area)” value in series [1] worked out at 4.11 m^2/g. For the same molecule, in series [2], the Dv10 is reported as 10.5 μm, the Dv50 is 36.8 μm and the Dv90 came to 70.2 μm.

In the case of `CCC(=O)O[C@]1(C(=O)SCF)[C@H](C)C[C@H]2[C@@H]3C[C@H](F)C4=CC(=O)C=C[C@]4(C)[C@@]3(F)[C@@H](O)C[C@@]21C` [Raw fluticasone, fluticasone propionate], the “SSA (specific surface area)” value in series [1] came out at 4.11 m^2/g. In series [2], this molecule showed a Dv10 of 10.9 μm, a Dv50 of 39.0 μm and a Dv90 of 74.4 μm.
